Experimental data: ChEMBL document CHEMBL1201862, “PubChem BioAssay data set” (2004)
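48-hour exposure; five concentrations; linearly interpolated endpoints. GI50 is the concentration that inhibits growth by half.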 Activity calls are given as the source filed them. Cut-off read from the data, not from the text of the source: active = GI50 up to about 1.1 µM and inactive = higher.

How the values were obtained:
Experiment in all cases: NCI tumour cell line growth inhibition, 48 h
LXFL 529 = tested on: LXFL 529
M19-MEL = tested on: M19-MEL
DLD-1 = tested on: DLD-1
RXF 631 = tested on: RXF 631
SNB-78 = tested on: SNB-78
HOP-18 = tested on: HOP-18
DMS-114 = tested on: DMS-114
XF498 = tested on: XF498

Measured: GI50

O=C(CC1Sc2ccccc2NC1=O)Nc1ccc(Cl)cc1 (stereo not drawn)
inactive: LXFL 529 > 100 µM | M19-MEL > 100 µM | DLD-1 > 100 µM | RXF 631 83.6 µM | SNB-78 > 100 µM | HOP-18 20 µM | DMS-114 48.4 µM | XF498 > 100 µM

N#CC1C(=O)C(=O)N(c2ccccc2)C1=O (stereo not drawn)
inactive: LXFL 529 > 100 µM | M19-MEL > 100 µM | RXF 631 > 100 µM | SNB-78 > 100 µM | HOP-18 > 100 µM | DMS-114 > 100 µM | XF498 > 100 µM

CC12CC3CC(C1)CC(N=[N+]=[N-])(C3)C2
inactive: LXFL 529 > 100 µM | M19-MEL > 100 µM | DLD-1 > 100 µM | RXF 631 > 100 µM | SNB-78 > 100 µM | HOP-18 > 100 µM | DMS-114 > 100 µM | XF498 > 100 µM
